In one assay the test system is oligo2-1 hairpin duplex. On the procedure:
(§1) To pursue the comparative quantitative analysis of these compounds with DNA in more detail by using surface plasmon resonance, 5′-biotin labeled analogs of oligo2-1 and 2-2 were immobilized on a BIAcore four-channel streptavidine-coated sensor chip as follows: Immobilization of DNA and surface plasmon resonance (SPR) binding studies: 5′-biotin labeled hairpins were purchased with HPLC purification (Midland Co). […] Steady state analysis was performed with multiple injections f different concentrations of each compound over the SA surface at a flow rate of 20 μl/min, at 25° C.
(§2) Oligo1 was immobilized as a control sequence and one flow cell was left as an unmodified reference. […] The free compound is fixed by the concentration in the flow solution.

In assay [1] the test system is 265 bp EcoRI-PvuII restriction fragment from plasmid pBS. Briefly: Quantitative DNase I footprinting. The format is binding. Conditions: for footprint in the 90–100 base region (GC-rich): 265 mer pBS fragment, DNase I; for binding to sites containing GC base pairs, such as ATGA, ACGA, and ATGT: several restriction fragments. On the procedure:
In order to characterize the DNA recognition properties of a series of analogs of furamidine (shown in FIG. 1), quantitative DNAaseI footprinting studies were conducted using of a number of derivatives with several different DNA sequences. Plasmid DNA restriction fragments were prepared and DNaseI footprinting experiments were conducted as described in C. Bailly, et al., Biochemistry 35, 1150 (1996) and C. Bailly et al., Anti Cancer Drug Design (in press, 1999).
FIG. 2. illustrates the results of a quantitative DNase I footprinting titration experiment with the compound DB293 on a 265 bp DNA fragment as described herein. The EcoRI-PvuII restriction fragment from plasmid pBS was 3′-end labeled at the EcoRI site with [α-^32P]dATP in the presence of AMV reverse transcriptase. […] Drug concentrations are (lanes 1–11) 0, 0.3, 0.6, 0.9, 1.2, 1.5, 1.8, 2.1, 2.4, 2.7, 3.0 μM for DB 293 and (lanes 12–15) 0, 1, 2 and 5 μM for DB270. Tracks labeled ‘G’ represent dimethylsulphate-piperidine markers specific for guanines. The track labeled DNA contained no drug and no enzyme. Numbers at the right side of the gel refer to the numbering scheme of the fragment. The rectangles on the left side refer to the positions of (open box) an AT-rich and (filled box) a GC-rich binding site for DB293. FIG. 2B is a graphical illustration of footprinting plots for the binding of DB293 to (open circles) the AT site 5′-AATTAA and (filled squares) the GC-rich site 5′-ACCATG. The relative band intensity R corresponds to the ratio Ic/Io where Ic is the intensity of the band at the ligand concentration c and Io is the intensity of the same band in the absence of DB293. The differential cleavage plots shown in FIG. 2C compare the susceptibility of the DNA to cutting by DNase I in the presence of (filled circles) 5 μM DB270 or (open squares) 1.5 μM DB293. Deviation of points towards the lettered sequence (negative values) corresponds to a ligand-protected site and deviation away (positive values) represents enhanced cleavage. The vertical scale is in units of ln(fa)–l(fc), where fa is the fractional cleavage at any bond in the presence of the drug and fc is the fractional cleavage of the same bond in the control. […] The rectangles below the sequence show the positions of (open box) the AT binding site and (filled box) the GC-rich site.

For another assay, the system named is hairpin duplex oligo2-1. The experiment in a line: Thermal melting (Tm) of hairpin oligo2-1. Type of assay: binding. The settings on record: 1:1 and 2:1 ratios, single transitions.
Another assay relates to oligo2-2 hairpin duplex. Conditions: SPR, two site model. On the procedure:
as §1, §2
On the technique in general: SPR reads the build-up and loss of mass on a sensor chip optically.

Assay [2] deals with hairpin duplex oligo2 (93–104 base sequence region of the 265 mer pBS restriction fragment). The experiment in a line: Thermal melting (Tm) of hairpin oligo2. The settings on record: oligo2 on titration with compound; 0.01 M MES, 0.001M EDTA. The format is binding. As to the method:
In order to investigate the complexes of these compounds in more detail with GC rich sequences, a hairpin duplex model containing the 93–104 base sequence region from the 265 mer pBS restriction fragment was synthesized and is illustrated as oligo2 in FIG. 1. Oligo1 (also shown in FIG. 1) with the AATT sequence that has been used in the analysis of a large number of minor-groove agents provides a reference.
Thermal melting experiments were conducted with a Cary 4 spectrophotometer interfaced to a microcomputer. A thermistor fixed into a reference cuvette was used to monitor the temperature. The oligomers were added to 1 mL of buffer (0.01 M MES and 0.001M EDTA) in 1 cm path length reduced volume quartz cells, and the concentration was determined by measuring the absorbance at 260 nm. Experiments were generally conducted at a concentration of 2×10^−6 M for hairpin oligo2, and 3×10^−6 M for hairpin oligo2-1. Tm experiments for the complexes were conducted as a function of ratio.

For the compound `N=C(N)c1ccc2nc(-c3ccc(-c4nc5ccc(C(=N)N)cc5[nH]4)o3)[nH]c2c1` [DB270, reference compound], the “binding to oligo2-1 relative to binding to oligo1” value in the assay on oligo2-1 hairpin duplex (SPR) is listed as “at least a factor of ten weaker”. In addition, in assay [1], the “footprint in the 90–100 base region (GC-rich)” value is “negligible footprints”; the “binding to sites containing GC base pairs, such as ATGA, ACGA, and ATGT” value was “not and do not bind strongly or footprint”. Further, the “melting temperatures of complexes with oligo2-1” value in the assay on hairpin duplex oligo2-1 is “below the DB293 value”.

Consider `N=C(N)c1ccc(-c2ccc(-c3nc4ccc(C(=N)N)cc4[nH]3)o2)cc1` [DB293], for which the “binding to oligo2-2 compared with oligo2-1” value with oligo2-2 hairpin duplex is “Very similar results”. Besides, the “K2 relative to K1 (times larger)” value with oligo2-1 hairpin duplex (also relative to binding of DB270) is listed as “over 25 times”. Besides, in the assay on oligo2-1 hairpin duplex (oligo2-1, two site model), the “macroscopic binding constant K1 (initial binding)” value is 2.8×10^6 and the “macroscopic binding constant K2 (second site after the first site is filled)” value was 7.3×10^7. The “increase in Tm” value in assay [2] was ≤ 30 °C. For the same compound, in assay [1], the “footprint in the 90–100 base region (GC-rich)” value is reported as “very strong footprint”; the “binding to sites containing GC base pairs, such as ATGA, ACGA, and ATGT” value was “strongly binds”. Further, the “C50 (drug concentration required for half-maximal footprinting) at the ATGA site versus the neighboring ATTA site” value in assay [1] (ATGA site compared with ATTA site) is reported as “significantly lower”.

The record behind these values is patent publication US7160914B2, “Compounds that exhibit specific molecular recognition of mixed nucleic acid sequences and bind in the DNA minor groove as a dimer” (The University of North Carolina at Chapel Hill, priority 1999, dated 2007).
